Like-named read-outs stand apart in the source and are kept apart here.

For assay [1], the target named is T1, human PLK4 (Homo sapiens, UniProt O00444).
T1 construct: amino terminal GST fusion of residues 1-391 of human PLK4; made in house; host or cells: E. coli
T1 sequence (O00444 1-391): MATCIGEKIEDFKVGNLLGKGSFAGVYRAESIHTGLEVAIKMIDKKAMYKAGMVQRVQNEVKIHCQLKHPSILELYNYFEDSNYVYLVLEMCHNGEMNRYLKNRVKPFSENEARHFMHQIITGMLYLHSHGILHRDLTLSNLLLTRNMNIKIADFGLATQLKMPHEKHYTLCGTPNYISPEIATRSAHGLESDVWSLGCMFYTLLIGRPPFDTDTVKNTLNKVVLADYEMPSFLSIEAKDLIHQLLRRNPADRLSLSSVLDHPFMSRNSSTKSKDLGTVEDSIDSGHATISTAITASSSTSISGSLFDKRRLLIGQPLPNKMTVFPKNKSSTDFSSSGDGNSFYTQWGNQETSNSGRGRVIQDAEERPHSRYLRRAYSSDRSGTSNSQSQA
In words: PLK4 Inhibition Assay (indirect ELISA). The settings on record: 15 μM ATP, 4 nM GST-PLK4; read-out: PLK4 IC50 Ranges. Type of assay: biochemical. The procedure, abridged: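 Dephosphorylated (lambda phosphatase) GST-PLK4 activity read by indirect ELISA. Compounds were pre-incubated with enzyme for 15 minutes before ATP was added. IC50 came from a non-linear 4-point logistic fit.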
A general note: An ELISA detects its analyte on a solid surface through an enzyme-linked reagent.

The subject of assay [2] is T47 D breast cancer cell line. The assay is described as follows: Cell growth inhibition, SRB assay, extended panel. It counts as cell-based. Particulars: Homo sapiens, T47D; read-out: GI50 on T47D Breast cancer cell line. Here is the method: (§1) Breast cancer cells (MCF-7, MDA-MB-468, HCC1954), colon cancer cells (SW620) and lung cancer cells (A549), together with human mammary epithelial primary cells (HMEC), were seeded (1000 to 4000 per 80 μl per well depending on the cell growth rate) into 96 well plates, 24 hours before compound overlay. Compounds were prepared as 10 mM stock solutions in 100% DMSO which were diluted with DMEM (Dulbecco's Modified Eagle's Medium) cell growth Medium (Invitrogen, Burlington, ON, Canada) containing 10% FBS (Fetal Bovine Serum) to concentrations ranging from 50 nM to 250 μM. Aliquots (20 μl) from each concentration were overlaid to 80 μl of the pre-seeded cells in the 96 well plates to make final concentrations of 10 nM to 50 μM. The cells were cultured for 5 days before the Sulforhodamine B assay (SRB) was performed to determine the compound's cell growth inhibition activity.
(§2) Sulforhodamine B (purchased from Sigma, Oakville, ON, Canada) is a water-soluble dye that binds to the basic amino acids of the cellular proteins. Thus, colorimetric measurement of the bound dye provides an estimate of the total protein mass that is related to the cell number. the cells are fixed in situ by gently aspirating off the culture media and adding 50 μl ice cold 10% Tri-chloroacetic Acid (TCA) per well and incubate at 4° C. for 30-60 min, The plates are washed with water five times and allowed to air dry for 5 min. Addition of 50 μl 0.4% (w/v) SRB solution in 1% (v/v) acetic acid to each well and incubatation for 30 min at RT completes the staining reaction. Following staining, plates are washed four times with 1% acetic acid to remove unbound dye and then allowed to air dry for 5 min. The stain is solubilized with 100 μl of 10 mM Tris pH10.5 per well. Absorbance is read at 570 nm.
(§3) The percentage (%) of relative growth inhibition was calculated by comparing to DMSO treated only cells (100%). GI50's were determined for compounds with cytotoxic activity. The GI50 was calculated using GraphPad PRISM software (GraphPad Software, Inc., San Diego, Calif., USA).
In addition to the cell lines tested as described above, selected compounds have been assayed against an extended panel. […] The sulforhodamine B assay (SRB) described above was use to assay test compounds against the extended panel (Table 9).

Assay [3] concerns MDA-MB-468 basal breast cancer cell line. In words: Cell growth inhibition, Sulforhodamine B assay (SRB). Particulars: Homo sapiens. It counts as cell-based. Here is the method:
as §1, §2, §3

Assay [4] relates to MCF-7 luminal breast cancer cell line. Described as above. The settings on record: Homo sapiens. Type of assay: cell-based. Here is the method:
as §1, §2, §3

Assay [5] has as its target T2, PLK1 (Homo sapiens, UniProt P53350).
T2 construct: purchased Invitrogen PV3501
The assay is described as follows: PLK1 Inhibition Assay (Z-Lyte). It counts as biochemical. The settings on record: for IC50: 25 μM ATP, 8 nM PLK1, read-out: PLK1 IC50 Ranges; for inhibition at 10 µM: 10 μM compound, read-out: PLK1 relative inhibition percentage at a dose of 10 μM. Here is the method:
PLK1 inhibition was determined using the Z-Lyte assay kit from Invitrogen (cat #PV3802). […] The % inhibition values were determined according to the manufacturer's directions and IC50 values were obtained using a non-linear 4 point logistic curve fit (XLfit4, IDBS)

Assay [6] has as its target T3, Aurora B (Homo sapiens, UniProt Q96GD4).
T3 construct: purchased Invitrogen PV3970
In words: Aurora B Inhibition Assay (Z-Lyte). It counts as biochemical. Particulars: 128 μM ATP, 28 nM Aurora B; read-out: Aurora B IC50 Ranges. Here is the method: Aurora B inhibition was determined using the Z-Lyte assay kit from Invitrogen. The assay was performed using the recommended manufacturer's instructions with 128 μM ATP and 28 nM Aurora B (Invitrogen cat #PV3970). The % inhibition values were determined according to the manufacturer's directions and IC50 values were obtained using a non-linear 4 point logistic curve fit (XLfit4, IDBS)

The target of assay [7] is T4, PLK2 (Homo sapiens, UniProt Q9NYY3).
T4 construct: purchased Invitrogen PV4204
In words: PLK2 Inhibition Assay (Z-Lyte). Particulars: for inhibition at 10 µM: 10 μM compound, read-out: PLK2 relative inhibition percentage at a dose of 10 μM. Type of assay: biochemical. The method, then:
PLK2 inhibition was determined using the Z-Lyte assay kit from Invitrogen (cat #PV3802). The assay was performed using the recommended manufacturer's instructions with 60 μM ATP and 133 nM PLK2 (Invitrogen cat #PV4204). The % inhibition values were determined according to the manufacturer's directions and IC50 values were obtained using a non-linear 4 point logistic curve fit (XLfit4, IDBS)

Assay [8] addresses T5, PLK3 (Homo sapiens, UniProt Q9H4B4).
T5 construct: purchased Invitrogen PV3812
In words: PLK3 Inhibition Assay (Z-Lyte). It counts as biochemical. The settings on record: 100 μM ATP, 21 nM PLK3. The method, then: PLK3 inhibition was determined using the Z-Lyte assay kit from Invitrogen (cat #PV3802). The assay was performed using the recommended manufacturer's instructions with 100 μM ATP and 21 nM PLK3 (Invitrogen cat #PV3812). The % inhibition values were determined according to the manufacturer's directions and IC50 values were obtained using a non-linear 4 point logistic curve fit (XLfit4, IDBS).

In assay [9] the target is T6, Aurora A (Homo sapiens, UniProt O14965).
T6 construct: purchased Invitrogen PV3612
T6 sequence (O14965 1-403): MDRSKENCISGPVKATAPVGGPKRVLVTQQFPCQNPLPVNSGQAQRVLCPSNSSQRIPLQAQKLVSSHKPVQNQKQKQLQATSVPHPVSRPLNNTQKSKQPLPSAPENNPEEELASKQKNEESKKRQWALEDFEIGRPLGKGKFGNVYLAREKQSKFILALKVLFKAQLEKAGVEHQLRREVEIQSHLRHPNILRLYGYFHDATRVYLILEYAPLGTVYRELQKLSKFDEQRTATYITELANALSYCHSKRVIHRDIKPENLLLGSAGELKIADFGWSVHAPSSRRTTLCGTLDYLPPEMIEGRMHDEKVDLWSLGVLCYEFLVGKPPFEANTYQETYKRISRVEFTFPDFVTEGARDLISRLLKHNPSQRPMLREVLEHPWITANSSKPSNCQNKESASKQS
In words: Aurora A Inhibition Assay (Z-Lyte). It counts as biochemical. The settings on record: for IC50: 20 μM ATP, 12 nM Aurora A, read-out: Aurora A IC50 Ranges. The method, then:
Aurora A inhibition was determined using the Z-Lyte assay kit from Invitrogen. The assay was performed using the recommended manufacturer's instructions with 20 μM ATP and 12 nM Aurora A (Invitrogen cat #PV3612). The % inhibition values were determined according to the manufacturer's directions and IC50 values were obtained using a non-linear 4 point logistic curve fit (XLfit4, IDBS)

Assay [10] has as its system SW620 colon cancer cells. The assay is described as follows: Cell growth inhibition, Sulforhodamine B assay (SRB). Type of assay: cell-based. Particulars: Homo sapiens, SW-620, 120 h, 5 days culture, read-out: Cell Line GI50 Range, SW-620. The method, then: as §1, §2, §3
(In SRB staining, fixed cells bind dye roughly in proportion to their protein.)

Assay [11] has as its system HCC1954 basal breast cancer cell line. Described as above. The settings on record: Homo sapiens, HCC1954, 120 h, 5 days culture, read-out: Cell Line GI50 Range, HCC-1954. It counts as cell-based. The method, then: as §1, §2, §3
Assay [12] has as its system human mammary epithelial primary cells (HMEC). The assay is described as above. It counts as cell-based. The settings on record: 120 h, 5 days culture, read-out: Cell Line GI50 Range, HMEC. Here is the method: as §1, §2, §3
Assay [13] concerns A549 lung cancer cells. Described as above. The settings on record: Homo sapiens, A549, 120 h, 5 days culture, read-out: Cell Line GI50 Range, A-549. It counts as cell-based. Here is the method: as §1, §2, §3
The mark [14] stands for this setting: MDA-MB-468, read-out: GI50 on MDA-MB-468 Breast cancer cell line.
Where [15] appears, read: MCF7, read-out: GI50 on MCF-7 Breast cancer cell line.
Where [16] appears, read: MDA-MB-468, 120 h, 5 days culture, SRB, read-out: Cell Line GI50 Range, MDA-MB-468.
Setting [17] is: MCF7, 120 h, 5 days culture, SRB, read-out: Cell Line GI50 Range, MCF-7.

T3 sequence (Q96GD4 whole entry): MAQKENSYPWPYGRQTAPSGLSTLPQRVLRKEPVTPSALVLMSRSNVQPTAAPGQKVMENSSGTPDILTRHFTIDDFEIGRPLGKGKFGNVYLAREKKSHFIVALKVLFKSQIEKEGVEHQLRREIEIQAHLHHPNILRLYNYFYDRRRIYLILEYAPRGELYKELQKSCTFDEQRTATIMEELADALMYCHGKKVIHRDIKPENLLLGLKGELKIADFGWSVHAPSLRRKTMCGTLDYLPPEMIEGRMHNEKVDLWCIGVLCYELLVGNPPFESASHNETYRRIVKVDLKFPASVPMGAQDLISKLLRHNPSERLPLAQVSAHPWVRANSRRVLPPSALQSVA
T2 sequence (P53350 whole entry): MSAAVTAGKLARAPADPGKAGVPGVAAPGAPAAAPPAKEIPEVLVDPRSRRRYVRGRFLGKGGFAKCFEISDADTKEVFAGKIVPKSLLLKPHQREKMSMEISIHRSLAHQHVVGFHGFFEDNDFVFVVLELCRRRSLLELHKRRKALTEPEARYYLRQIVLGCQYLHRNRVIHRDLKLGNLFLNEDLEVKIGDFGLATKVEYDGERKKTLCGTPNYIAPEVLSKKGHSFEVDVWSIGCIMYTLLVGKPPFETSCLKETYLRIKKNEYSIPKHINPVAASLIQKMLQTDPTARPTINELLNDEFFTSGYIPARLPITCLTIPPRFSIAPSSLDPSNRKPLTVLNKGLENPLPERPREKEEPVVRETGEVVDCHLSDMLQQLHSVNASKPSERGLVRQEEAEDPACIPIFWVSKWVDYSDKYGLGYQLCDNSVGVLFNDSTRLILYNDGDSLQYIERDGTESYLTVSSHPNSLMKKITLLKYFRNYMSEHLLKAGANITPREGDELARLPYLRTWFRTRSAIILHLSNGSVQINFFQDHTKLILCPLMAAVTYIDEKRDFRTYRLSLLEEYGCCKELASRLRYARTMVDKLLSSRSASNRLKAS
T4 sequence (Q9NYY3 whole entry): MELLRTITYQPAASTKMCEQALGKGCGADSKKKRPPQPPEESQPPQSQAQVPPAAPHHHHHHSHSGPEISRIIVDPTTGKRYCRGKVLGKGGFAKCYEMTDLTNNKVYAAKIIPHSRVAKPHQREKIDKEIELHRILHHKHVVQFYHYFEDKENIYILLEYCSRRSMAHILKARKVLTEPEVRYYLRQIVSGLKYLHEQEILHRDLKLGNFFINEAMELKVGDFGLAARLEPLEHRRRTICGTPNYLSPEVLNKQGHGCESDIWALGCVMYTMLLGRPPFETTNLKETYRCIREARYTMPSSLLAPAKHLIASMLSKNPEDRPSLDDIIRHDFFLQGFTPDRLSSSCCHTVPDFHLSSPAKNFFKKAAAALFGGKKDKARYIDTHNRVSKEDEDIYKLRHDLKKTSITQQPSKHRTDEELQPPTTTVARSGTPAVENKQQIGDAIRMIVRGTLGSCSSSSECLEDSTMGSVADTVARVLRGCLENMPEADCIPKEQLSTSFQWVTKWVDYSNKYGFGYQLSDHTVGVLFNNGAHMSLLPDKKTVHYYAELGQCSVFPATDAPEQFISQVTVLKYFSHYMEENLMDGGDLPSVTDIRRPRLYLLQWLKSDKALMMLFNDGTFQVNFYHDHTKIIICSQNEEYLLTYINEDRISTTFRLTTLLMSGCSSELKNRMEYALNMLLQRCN
T5 sequence (Q9H4B4 whole entry): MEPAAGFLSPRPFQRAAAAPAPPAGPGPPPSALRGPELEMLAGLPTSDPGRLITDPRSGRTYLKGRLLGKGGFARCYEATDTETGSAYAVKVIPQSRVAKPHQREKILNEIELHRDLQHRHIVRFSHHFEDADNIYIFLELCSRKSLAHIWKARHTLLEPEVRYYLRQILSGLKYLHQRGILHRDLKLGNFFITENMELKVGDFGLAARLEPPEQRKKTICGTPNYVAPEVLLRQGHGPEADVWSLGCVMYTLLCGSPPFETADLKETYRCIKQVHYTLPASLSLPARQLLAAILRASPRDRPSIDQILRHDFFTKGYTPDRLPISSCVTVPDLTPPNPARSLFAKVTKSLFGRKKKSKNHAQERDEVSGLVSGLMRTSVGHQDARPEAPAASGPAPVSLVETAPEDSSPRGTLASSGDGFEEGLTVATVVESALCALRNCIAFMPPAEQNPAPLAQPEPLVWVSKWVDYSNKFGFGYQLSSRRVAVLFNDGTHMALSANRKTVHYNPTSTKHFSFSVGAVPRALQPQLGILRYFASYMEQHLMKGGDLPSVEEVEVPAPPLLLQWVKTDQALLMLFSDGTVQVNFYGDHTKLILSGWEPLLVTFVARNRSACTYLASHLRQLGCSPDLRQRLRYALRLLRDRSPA

`CNS(=O)(=O)c1ccc2c(c1)C(=Cc1ccc3cn[nH]c3c1)C(=O)N2` (mixture of isomers) [Example A9, (E and Z)-3-((1H-indazol-6-yl)methylene)-N-methyl-2-oxoindoline-5-sulfonamide]: the IC50 in [1] and in assay [5] was below 5 µM in each case. For the same molecule, the GI50 in [2], in assay [3] (setting [14]) and in assay [4] (setting [15]) was above 50 µM throughout.
For `O=C1Nc2ccccc2/C1=C\c1ccc2[nH]ncc2c1` [Example A6, (E)-3-((1H-indazol-5-yl)methylene)indolin-2-one], the IC50 in [6] was below 5 µM; in [1], below 5 µM; in [7] (60 μM ATP, 133 nM PLK2, read-out: PLK2 IC50 Ranges), below 5 µM; in assay [8], above 500 nM; in assay [9], below 5 µM; in [5] it was 5 to 50 µM. Besides, the GI50 in [3] (setting [16]) and in [4] (setting [17]) was 5 to 20 µM each time.
In the case of `CNS(=O)(=O)c1ccc2c(c1)C(=Cc1ccc3[nH]nnc3c1)C(=O)N2` [Example A7, 3-((1H-benzo[d][1,2,3]triazol-5-yl)methylene)-N-methyl-2-oxoindoline-5-sulfonamide], the results for the IC50 in [1] and in [5] were below 5 µM and 5 to 50 µM, respectively. Further, the GI50 in assay [2], in assay [3] (setting [14]) and in [4] (setting [15]) was above 50 µM each time.
As to `O=C(O)/C=C/c1n[nH]c2cc(/C=C3/C(=O)Nc4ccccc43)ccc12` [Example A70, (E)-3-(6-((E)-(2-oxoindolin-3-ylidene)methyl)-1H-indazol-3-yl)acrylic acid], the IC50 in assay [1] is below 5 µM. Further, the GI50 in assay [2], in [3] (setting [14]) and in [4] (setting [15]) was above 50 µM in each case.
With `O=C1Nc2ccccc2/C1=C\c1ccc2c(-c3cccs3)n[nH]c2c1` [Example A91, (E)-3-((3-(thiophen-2-yl)-1H-indazol-6-yl)methylene)indolin-2-one], the IC50 was below 5 µM in assay [6], below 5 µM in [1] and 5 to 50 µM in [9]. Besides, the inhibition at 10 µM in assay [7] and in assay [5] was below 50% in each case. The concentration for 50% growth inhibition (GI50) is below 5 µM in assay [10]; below 5 µM in assay [11]; 5 to 20 µM in assay [12]; below 5 µM in [3] (setting [16]); below 5 µM in [4] (setting [17]).
Consider `Cc1ncsc1/C=C/c1n[nH]c2cc(/C=C3/C(=O)Nc4ccccc43)ccc12` [Example A103, (E)-3-((3-((E)-2-(4-methylthiazol-5-yl)vinyl)-1H-indazol-6-yl)methyl-ene)indolin-2-one], for which the inhibition at 10 µM was below 50% in [7]; above 50% in assay [9] (10 μM compound, read-out: Aurora A relative inhibition percentage at a dose of 10 μM); below 50% in assay [5]. In addition, the GI50 in assay [10] was below 5 µM; in assay [11], 5 to 20 µM; in [12] it was above 50 µM; in assay [13], 5 to 20 µM; in assay [3] (setting [16]) it was below 5 µM; in assay [4] (setting [17]), below 5 µM.
As to `CCOC(=O)/C=C/c1n[nH]c2cc(/C=C3/C(=O)Nc4ccc(OC)cc43)ccc12` [Example A111, (E)-ethyl 3-(6-((E)-(5-methoxy-2-oxoindolin-3-ylidene)methyl)-1H-indazol-3-yl)acrylate], the IC50 in assay [1] and in [9] was below 5 µM throughout. Besides, the GI50 in [2], in assay [3] (setting [14]) and in assay [4] (setting [15]) was above 50 µM each time. Also, the inhibition at 10 µM in assay [7] and in assay [5] was below 50% in each case.
As to `CC(C)c1ccc2c(c1)/C(=C\c1ccc3c(/C=C/c4ccncc4)n[nH]c3c1)C(=O)N2` [Example A127, (E)-5-isopropyl-3-((3-((E)-2-(pyridin-4-yl)vinyl)-1H-indazol-6-yl)methylene)indolin-2-one 2,2,2-trifluoroacetate], the IC50 was below 5 µM in [6], below 5 µM in [1], above 500 nM in assay [8] and below 5 µM in assay [9]. In addition, the GI50 in assay [10] was below 5 µM; in [11] it was below 5 µM; in [13], 5 to 20 µM; in [3] (setting [16]) it was below 5 µM; in assay [4] (setting [17]), below 5 µM.

As usually defined, the IC50 is the concentration that inhibits the measured activity by half. A word on the GI50: it is the concentration at which growth is held to half of that of the control. The term inhibition denotes the relative decrease from the control value, in per cent.

Values taken from US8765748B2, “Indazolyl, benzimidazolyl, benzotriazolyl substituted indolinone derivatives as kinase inhibitors useful in the treatment of cancer” (University Health Network, priority 2007, dated 2014).
